Earlier results in US7153867B2, “Use of nitrogen substituted thalidomide analogs for the treatment of macular degenerator” (Celgene Corporation, priority 2001, dated 2006).

System: vascular endothelial cell proliferation
Details: in vitro; endothelial versus tumor cell proliferation

In the case of CO[C@@H]1[C@H](OC(=O)NC(=O)CCl)CC[C@]2(CO2)[C@H]1[C@@]1(C)O[C@@H]1CC=C(C)C [AGM-1470], the “half-maximal inhibition of vascular endothelial cell proliferation at lower concentration than tumor cell proliferation” value is given as 4 logs.
